Reference: US8791132B2, “Compounds and methods for treatment of hypertension” (Medivation Technologies, Inc., priority 2011, dated 2014)
“And” between values parts separate entries of the source, which are not always exact repeats. Equal entries are not always repeated. Where two headings read alike, the source gives them in different places.

Columns and labels:
[1] = biological target: T1, human recombinant adrenergic α2A receptor (Homo sapiens, UniProt P08913); experiment: Radioligand binding, adrenergic α2A ([3H]MK-912); conditions: for Percentage inhibition of ligand binding, Adrenergic α2A (0.1 μM) / inhibition at 0.1 µM / Percentage inhibition of ligand binding, Adrenergic α2A / inhibition at 0.03 µM: [3H]MK-912; for Percentage inhibition of ligand binding, Adrenergic α2A (0.1 μM) / Percentage inhibition of ligand binding, Adrenergic α2A: 0.1 µM
T1 construct: expressed in transfected cells; host or cells: insect Sf9 cells
T1 sequence (P08913 1-465): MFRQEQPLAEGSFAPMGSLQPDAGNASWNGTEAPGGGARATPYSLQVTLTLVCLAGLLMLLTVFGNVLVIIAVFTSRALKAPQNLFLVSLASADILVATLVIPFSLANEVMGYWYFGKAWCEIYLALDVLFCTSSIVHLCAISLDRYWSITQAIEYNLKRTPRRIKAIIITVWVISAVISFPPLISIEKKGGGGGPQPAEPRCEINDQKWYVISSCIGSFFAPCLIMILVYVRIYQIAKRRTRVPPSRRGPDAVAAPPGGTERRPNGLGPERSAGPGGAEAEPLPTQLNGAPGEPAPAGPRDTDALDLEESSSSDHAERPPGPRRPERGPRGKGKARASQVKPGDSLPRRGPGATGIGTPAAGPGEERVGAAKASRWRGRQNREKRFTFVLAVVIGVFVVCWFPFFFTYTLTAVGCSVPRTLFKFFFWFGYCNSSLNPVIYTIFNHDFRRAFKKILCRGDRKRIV
Procedure, shortened: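 Displacement of 1 nM [3H]MK-912 from receptor produced in insect Sf9 cells was measured after 60 min at 25 °C. Readout: percent inhibition of specific binding.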

[2] = biological target: T2, rat adrenergic α1B receptor (Rattus norvegicus, UniProt P15823); experiment: Radioligand binding, adrenergic α1B ([3H]Prazosin); conditions: for Percentage inhibition of ligand binding, Adrenergic α1B (0.1 μM) / inhibition at 0.1 µM / inhibition at 0.03 µM / Percentage inhibition of ligand binding, Adrenergic α1B: [3H]Prazosin; for Percentage inhibition of ligand binding, Adrenergic α1B (0.1 μM) / Percentage inhibition of ligand binding, Adrenergic α1B: 0.1 µM
T2 construct: rat adrenergic α1B receptor obtained from Wistar Rat liver; from tissue; host or cells: Wistar rat liver
T2 sequence (P15823 1-515): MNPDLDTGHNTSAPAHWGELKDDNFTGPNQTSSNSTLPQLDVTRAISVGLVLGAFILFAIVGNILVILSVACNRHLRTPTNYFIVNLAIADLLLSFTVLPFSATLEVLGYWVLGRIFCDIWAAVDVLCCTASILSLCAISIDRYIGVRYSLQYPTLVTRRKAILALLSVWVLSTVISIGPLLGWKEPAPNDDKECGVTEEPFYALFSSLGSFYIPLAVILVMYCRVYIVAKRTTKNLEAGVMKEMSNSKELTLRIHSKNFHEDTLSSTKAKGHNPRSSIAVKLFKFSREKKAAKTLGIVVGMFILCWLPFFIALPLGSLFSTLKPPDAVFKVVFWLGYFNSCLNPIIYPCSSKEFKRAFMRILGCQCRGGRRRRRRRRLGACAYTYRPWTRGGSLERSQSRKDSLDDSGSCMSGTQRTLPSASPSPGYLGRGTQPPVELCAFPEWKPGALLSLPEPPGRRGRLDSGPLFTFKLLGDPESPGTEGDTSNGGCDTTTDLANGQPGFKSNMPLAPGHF
Procedure, shortened: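 Rat α1B receptor from Wistar rat liver was incubated with 0.25 nM [3H]prazosin for 60 min at 25 °C in 50 mM Tris-HCl, pH 7.4, 0.5 mM EDTA. Non-specific binding was defined with 10 μM phentolamine. Bound radioligand was measured by filtration and counting, reported as percent inhibition of specific binding.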

[3] = biological target: T3, human recombinant adrenergic α2B receptor (Homo sapiens, UniProt P18089); experiment: Radioligand binding, adrenergic α2B ([3H]Rauwolscine); conditions: for Ki: read-out: Ki α2B
T3 construct: expressed in transfected cells; host or cells: CHO-K1
T3 sequence (P18089 1-450): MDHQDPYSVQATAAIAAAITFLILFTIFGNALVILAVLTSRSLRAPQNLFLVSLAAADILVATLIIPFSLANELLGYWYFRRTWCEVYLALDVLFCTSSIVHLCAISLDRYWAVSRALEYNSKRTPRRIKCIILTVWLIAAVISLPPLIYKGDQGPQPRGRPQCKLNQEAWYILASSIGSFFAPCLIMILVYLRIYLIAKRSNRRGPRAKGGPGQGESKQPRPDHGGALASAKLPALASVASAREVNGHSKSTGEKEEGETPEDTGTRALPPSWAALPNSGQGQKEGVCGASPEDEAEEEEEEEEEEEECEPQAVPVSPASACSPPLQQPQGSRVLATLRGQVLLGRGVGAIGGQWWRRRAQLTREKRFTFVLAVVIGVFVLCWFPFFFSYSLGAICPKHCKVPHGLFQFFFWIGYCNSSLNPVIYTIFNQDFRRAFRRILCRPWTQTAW
Procedure, shortened: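 Values are percent inhibition of specific radioligand binding. The receptor, expressed in CHO-K1 cells, was exposed to 2.5 nM [3H]Rauwolscine at 25° C for 60 min, with 10 μM Prazosin marking non-specific binding.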

[4] = compound at 0.1 μM, repeat datapoints each shown
[5] = read-out: Percentage inhibition of ligand binding, Adrenergic α2A (0.1 μM), compound at 0.1 μM, repeat datapoints each shown
[6] = read-out: Percentage inhibition of ligand binding, Adrenergic α1B (0.1 μM), compound at 0.1 μM, repeat datapoints each shown
[7] = compound at 0.1 μM, [3H]Rauwolscine, repeat datapoints each shown, 0.1 µM
[8] = read-out: Percentage inhibition of ligand binding, Adrenergic α2B (0.1 μM), compound at 0.1 μM, [3H]Rauwolscine, repeat datapoints each shown
[9] = compound at 0.1 μM, repeat assays, each datapoint shown
[10] = compound at 0.03 μM, repeat assays, each datapoint shown, read-out: Percentage inhibition of ligand binding, Adrenergic α1B
[11] = compound at 0.03 μM, [3H]Rauwolscine, repeat assays, each datapoint shown, 0.03 µM
[12] = compound at 0.1 μM, [3H]Rauwolscine, repeat assays, each datapoint shown, 0.1 µM
[13] = read-out: Percentage inhibition of ligand binding, Adrenergic α2A (0.03 μM), compound at 0.03 μM, repeat datapoints each shown
[14] = read-out: Percentage inhibition of ligand binding, Adrenergic α1B (0.03 μM), compound at 0.03 μM, repeat datapoints each shown
[15] = read-out: Percentage inhibition of ligand binding, Adrenergic α2B (0.03 μM), compound at 0.03 μM, [3H]Rauwolscine, repeat datapoints each shown
[16] = compound at 0.1 μM, repeat assays, each datapoint shown, read-out: Percentage inhibition of ligand binding, Adrenergic α1B
[17] = compound at 0.03 μM, [3H]Rauwolscine, repeat assays, each datapoint shown, read-out: Percentage inhibition of ligand binding, Adrenergic α2B
[18] = compound at 0.1 μM, [3H]Rauwolscine, repeat assays, each datapoint shown, read-out: Percentage inhibition of ligand binding, Adrenergic α2B

SMILES	Percentage inhibition of ligand binding, Adrenergic α2A (0.1 μM) [1, 4]	inhibition at 0.1 µM [1, 5] [%]	Percentage inhibition of ligand binding, Adrenergic α1B (0.1 μM) [2, 4] [%]	inhibition at 0.1 µM [2, 6] [%]	Percentage inhibition of ligand binding, Adrenergic α2B (0.1 μM) [3, 7] [%]	inhibition at 0.1 µM [3, 8] [%]	Ki [1] [nM]	inhibition at 0.03 µM [2, 10] [%]	Percentage inhibition of ligand binding, Adrenergic α1B [2, 9]	Ki [3] [nM]	inhibition at 0.03 µM [1, 13] [%]	inhibition at 0.03 µM [2, 14] [%]	inhibition at 0.03 µM [3, 15] [%]	inhibition at 0.1 µM [2, 16] [%]	inhibition at 0.03 µM [3, 17] [%]	other results
C/C(=C\n1c2c(c3cc(C)ccc31)CN(C)CC2)c1ccncn1 [compound 101]	15%	14	79	61	76	63	–	–	–	–	–	–	–	–	–	–
Cc1ccc2c(c1)c1c(n2CC(N)c2ccncc2)CCN(C)C1 (single isomer, unassigned) [27a, 2-(1,2,3,4-tetrahydro-2,8-dimethylpyrido[4,3-b]indol-5-yl)-1-(pyridin-4-yl)ethanamine]	–	–	–	–	–	–	1100	34	59% and 64%	4.32	–	–	–	–	–	Percentage inhibition of ligand binding, Adrenergic α2A [1, 9]: 2% and 11%; Percentage inhibition of ligand binding, Adrenergic α2B [3, 11]: 76% and 83%; Percentage inhibition of ligand binding, Adrenergic α2B [3, 12]: 94%
Cc1ccc2c(c1)c1c(n2CNc2ccccn2)CCN(C)C1 [compound 120, (2,8-dimethyl-1,2,3,4-tetrahydro-pyrido[4,3-b]indol-5-ylmethyl)-pyridin-2-yl-amine]	48%	45	22	21	70	55	65.8	–	–	20.5	25	4	39	–	–	–
Cc1ccc2c(c1)c1c(n2C2=C(c3ccc4c(ccn4C)c3)CCC2)CCN(C)C1 [compound 191, 2,8-dimethyl-5-(2-(1-methyl-1H-indol-5-yl)cyclopent-1-enyl)-2,3,4,5-tetrahydro-1H-pyrido[4,3-b]indole]	98%	89	20	10	99	89	2.1	–	–	3.23	85	2	84	–	–	–
Cc1ccc2c(c1)c1c(n2CC(O)c2ccncc2)CCN(C)CC1 (single isomer, unassigned) [13b, 2-(3,9-dimethyl-2,3,4,5-tetrahydroazepino[4,5-b]indol-6(1H)-yl)-1-(pyridin-4-yl)ethanol]	–	–	–	–	–	–	199	68	–	0.62	–	–	–	91	100	Percentage inhibition of ligand binding, Adrenergic α2B [3, 11]: 102%
C/C(=C\n1c2c(c3cc(C)ccc31)CN(C)CC2)c1cnc(N(C)C)nc1 [compound 187]	63% and 84%	–	–	71	98	84	17.9	–	–	4.43	41	–	78	–	–	–
Cc1cnc2c(c1)c1c(n2CCc2ccc(C)nc2)CCN2CCCC12 (single isomer, unassigned) [74a, 10-methyl-7-(2-(6-methylpyridin-3-yl)ethyl)-2,3,5,6,7,11c-hexahydro-1H-pyrido[3′,2′:4,5]pyrrolo[2,3-g]indolizine]	–	–	–	–	–	–	234	81	96%	1.42	–	–	–	91	93	Percentage inhibition of ligand binding, Adrenergic α2A [1, 9]: 27%; inhibition at 0.1 µM ([1]; compound at 0.1 μM, repeat assays, each datapoint shown, read-out: Percentage inhibition of ligand binding, Adrenergic α2A): 22%; Ki [2]: 4.72 nM; inhibition at 0.1 µM [3, 18]: 101%
Cc1ccc2c(c1)c1c(n2CC(O)c2ccncc2)CCN(C)C1 (centres unmarked) [compound 3]	–	–	–	–	–	–	0.26	24	54%	0.64	–	–	–	51	99	inhibition at 0.03 µM ([1]; compound at 0.03 μM, repeat assays, each datapoint shown, read-out: Percentage inhibition of ligand binding, Adrenergic α2A): 4%; Percentage inhibition of ligand binding, Adrenergic α2B [3, 12]: 103%; inhibition at 0.1 µM [3, 18]: 100%
C/C(=C\n1c2c(c3cc(C)ccc31)CN(C)CC2)c1ccc(C)nc1 [compound 186]	72%	54	55	53	101	100	11	–	–	0.52	53	24	94	–	–	Percentage inhibition of ligand binding, Adrenergic α2B (0.03 μM) ([3]; compound at 0.03 μM, [3H]Rauwolscine, repeat datapoints each shown, 0.03 µM): 97%
